Non-standard residues stand in square brackets, D forms with d. Residues, ends and D or L forms follow the SMILES beside them. *: point of attachment. Nle = CCCC[C@H](N)C(=O)O; Cbz = O=C(OCc1ccccc1)*
Assays:
[1] = target: T1, proteasome (Homo sapiens, UniProt P28072+P28074+Q99436); assay: Image-based PIR nuclear translocation assay in H1299-PIR reporter cells; type: cell-based; details: for PIR nuclear translocation in the NCI Diversity Set screen: 1 and 10 μM, 12 hours incubation; for PIR nuclear translocation upon treatment with known proteasome inhibitors: H1299-PIR cells, 6 hours, microscopy
T1 construct: endogenous in cells; host or cells: H1299-PIR (H1299 stably expressing the p53-YFP reporter)
Text: To construct a YFP-tagged Proteasome Inhibitor Reporter (PIR) protein, cDNA encoding a full-length human p53 R175H mutant was amplified by PCR from a cDNA clone, and three consecutive lysine residues in the bipartite Nuclear Localization Signal (NLS) were replaced with alanines by PCR-based, site-directed mutagenesis [Higuchi R, et al., (1988) Nucleic Acids Res 16: 7351-7367; Ho S N, et al (1989) Gene 77: 51-59]. The DNA fragment was cloned into the BglII and NotI sites of pLPCX retroviral vector (Clontech) in-frame to the N-terminus of the yellow fluorescent protein (YFP), using the NotI/ClaI restriction sites. The PIR protein was expressed in an H1299 non-small cell lung carcinoma cell line, following retroviral infection, and the cells were cultured in RPMI 1640 medium containing 10% fetal bovine serum, 2 mM glutamine and 1% penicillin-streptomycin (all from Sigma-Aldrich) in a humidified atmosphere of 5% CO2 at 37° C. Fluorescent cells were isolated by flow cytometry, and single-cell cloning was used to generate a morphologically uniform cell population.
PIR-expressing H1299 cells were seeded at a density of 800 cells per well in 384-well assay plates (F-bottom, μClear, black, tissue-culture-treated) (Greiner Bio-One). Cells were cultured for 24 hours and treated with the library compounds at two concentrations (1 and 10 μM) in RPMI 1640. In each assay plate, cells in 24 wells treated with 0.2% DMSO alone were used as controls. […] Following 12 hours of incubation, cells were fixed in 3% paraformaldehyde for 20 minutes, then washed with PBS and screened for localization of the PIR protein.
WiScan™ Cell Imaging System (Idea Bio-Medical) was used for this screen [Paran Y et al., 2006, Methods Enzymol 414: 228-247]. The system is based on an IX71 microscope (Olympus), equipped with a fast laser AutoFocus device and an automated stage. Thirty-six fields were acquired from every well using a 60×/0.9 air objective, stored, and tiled into montages to detect consistent effects. Scoring of the nuclear translocation of the fluorescent PIR protein was carried out manually.
The cells were then fixed and scored for nuclear translocation of PIR.

[2] = target: T1, proteasome; assay: Western blot for accumulation of polyubiquitinated proteins and β-catenin in H1299-PIR cells; type: cell-based; details: 6 hours
Protocol: H1299-PIR cells were lysed with radioimmune precipitation assay buffer (1% NP-40, 1% sodium deoxycholate, 0.1% SDS, 150 mM NaCl, 50 mM Tris, pH 8.0) containing a protease inhibitor cocktail from Roche Applied Science. Protein extracts were subjected to 8% SDS-PAGE, transferred to a nitrocellulose membrane (Whatman), and probed with monoclonal anti-p53 (DO1, Santa Cruz Biotechnology), anti-ubiquitin (Covance), anti-β-catenin (Sigma) and anti-β-tubulin (Sigma) primary antibodies.
One characteristic outcome of proteasome inhibition is the accumulation of ubiquitinated proteins in the treated cells. […] Following incubation, cell extracts were analyzed by Western blot, using anti-ubiquitin and anti-β-catenin antibodies.

[3] = tested on: purified rabbit 26S proteasomes; assay: In vitro proteasome activity assay, Suc-LLVY-AMC degradation; type: biochemical; details: MG132 control at 5 μM
Protocol: For measuring proteasome activity, purified 20S or 26S proteasomes prepared from rabbit muscles were incubated at a final concentration of 16 nM, with 100 μM fluorogenic 7-amido-4-methylcoumarin (AMC) tetrapeptide substrate Suc-LLVY-AMC (Bachem) and the stated concentration of the hit compounds in the presence of 100 μl of assay buffer (50 mM Hepes, 5 mM MgCl2, 2 mM ATP and 1 mM DTT). […] The time-dependent increase of hydrolyzed AMC groups was measured in a 96-well plate equilibrated to 37° C., using a Varioscan multi-well plate reader (Thermo Fisher Scientific, Inc.) in a kinetic mode, in which the recording intervals were set to 1 minute. The excitation wavelength was 370 nm; fluorescence emission was recorded at 465 nm.
To directly test the capacity of the four compounds to inhibit activity in mammalian proteasomes, an in vitro activity assay was performed in which the hit compounds were tested for their effects on the degradation of the model fluorogenic tetrapeptide LLVY-AMC by purified rabbit 26S proteasomes.

[4] = tested on: PIR-H1299 cells; assay: AlamarBlue cell viability assay; type: cell-based, human; details: 48 hours, 0.1 to 100 μM
Protocol: The effect of each hit compound on cell viability was tested at 11 different concentrations, ranging from 0.1-100 μM. PIR cells were plated onto 384-well microplates for 24 hours, and then treated for 48 h with the library compounds. Cell viability was determined using the colorimetric AlamarBlue® (Invitrogen) viability assay, according to the manufacturer's instructions.
Proteasome inhibitors are known to be particularly cytotoxic to malignant cells via multiple mechanisms. To directly test the effects of the new proteasome inhibitors discovered in this study on cell viability, PIR-expressing H1299 cells were treated for 48 hours with each of the four compounds, at a wide range of concentrations, ranging from 0.1 to 100 μM. The cells were then subjected to an Alamar Blue viability assay, which quantifies the number of metabolically active cells. […] For all proteasome inhibitors examined in this screen, there was a high correlation between proteasomal inhibitory activity and cell viability.

[5] = tested on: NCI-60 panel of human tumor cell lines; details: molar concentration, cited from earlier work; for average −log10 GI50 over the panel: all NCI-60 cell lines; for overall −log10 GI50, leukemia cells: leukemia subpanel
[6] = target: T1, proteasome; details: after 20 hours of treatment, flow cytometry; cited from earlier work
[7] = tested on: MDA-MB-231 cells; assay: Cell viability, malignant breast carcinoma cells; type: cell-based, human
[8] = tested on: MCF10A; assay: Cell viability, normal breast epithelial cell line; type: cell-based, human; details: considerably higher concentration than for MDA-MB-231
[9] = target: proteasome β2, β1 and β5 activities (Homo sapiens, UniProt P28072+P28074+Q99436); assay: Inhibition of tryptic-, caspase- and chymotrypsin-like proteasome activities; type: biochemical
Sequence of proteasome β2, β1 and β5 activities (Q99436 44-277): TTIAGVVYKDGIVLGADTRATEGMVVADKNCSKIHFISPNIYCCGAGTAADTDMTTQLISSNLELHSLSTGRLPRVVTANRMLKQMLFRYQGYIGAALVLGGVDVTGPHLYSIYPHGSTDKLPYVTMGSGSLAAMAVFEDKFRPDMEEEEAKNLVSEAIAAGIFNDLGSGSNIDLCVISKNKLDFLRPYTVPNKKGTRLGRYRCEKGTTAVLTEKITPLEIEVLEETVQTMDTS
Sequence of proteasome β2, β1 and β5 activities (P28072 whole entry): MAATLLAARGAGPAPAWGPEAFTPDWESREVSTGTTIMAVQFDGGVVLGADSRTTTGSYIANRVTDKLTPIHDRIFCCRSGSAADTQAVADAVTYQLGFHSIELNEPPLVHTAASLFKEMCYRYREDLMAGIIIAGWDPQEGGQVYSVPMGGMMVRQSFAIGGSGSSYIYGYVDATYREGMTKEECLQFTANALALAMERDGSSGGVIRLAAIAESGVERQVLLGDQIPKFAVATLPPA
Sequence of proteasome β2, β1 and β5 activities (P28074 60-263): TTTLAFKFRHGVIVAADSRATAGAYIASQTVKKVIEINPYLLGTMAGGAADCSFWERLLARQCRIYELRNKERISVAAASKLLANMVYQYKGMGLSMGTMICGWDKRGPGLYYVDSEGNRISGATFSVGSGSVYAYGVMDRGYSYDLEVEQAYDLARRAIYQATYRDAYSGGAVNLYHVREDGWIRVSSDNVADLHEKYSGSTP
Sequence of proteasome β2, β1 and β5 activities (P49720 whole entry partner): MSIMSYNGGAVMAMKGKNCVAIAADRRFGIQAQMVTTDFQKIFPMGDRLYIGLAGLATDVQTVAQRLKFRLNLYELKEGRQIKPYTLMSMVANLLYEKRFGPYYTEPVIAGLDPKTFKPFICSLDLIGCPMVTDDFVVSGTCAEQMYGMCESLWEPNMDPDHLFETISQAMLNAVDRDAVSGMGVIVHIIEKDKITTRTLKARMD

| Molecule | PIR nuclear translocation in the NCI Diversity Set screen [1] | GI50 [4] [nM] | average −log10 GI50 over the panel [5] | overall −log10 GI50, leukemia cells [5] | PIR nuclear translocation upon treatment with known proteasome inhibitors [1] | inhibition of LLVY-AMC degradation by purified 26S proteasome ([3]; 30 μM compound) | also measured |
| --- | --- | --- | --- | --- | --- | --- | --- |
| 8-Quinolinol salicylate [NSC3907] | positive in the assay | 47000 | 5.3 | 6.249 |  |  | accumulation of polyubiquitinated proteins and β-catenin (inhibitory effect on proteasomal degradation) ([2]; 20 μM): less of an inhibitory effect; inhibition of LLVY-AMC degradation by purified 26S proteasome ([3]; 100 μM compound): only a minor effect |
| CCCC[C@@H](C=O)NC(=O)[C@H](CC(C)C)NC(=O)[C@H](CC(C)C)NC(C)=O [ALLN, reference compound] (Ac-Leu-Leu-[Nle]-aldehyde) |  |  |  |  | PIR translocates into the nucleus |  |  |
| CC(C)C[C@H](NC(=O)[C@H](Cc1ccccc1)NC(=O)c1cnccn1)B(O)O [Bortezomib, Pyz-Phe-boroLeu, reference compound] |  |  |  |  | PIR translocates into the nucleus |  |  |
| CC(C)C[C@@H](C=O)NC(=O)[C@H](CC(C)C)NC(=O)[C@H](CC(C)C)NC(=O)OCc1ccccc1 [MG132, reference compound] (Cbz-Leu-Leu-Leu-aldehyde) |  |  |  |  | PIR translocates into the nucleus |  | concentration at which MG132 is detected [6]: 2.5 µM |
| NC(CCC(=O)O)C(=O)O (centres unmarked) [NSC99671] | positive in the assay | 96000 | 4.1 | 4.473 |  | moderate inhibitory effect | accumulation of polyubiquitinated proteins and β-catenin (inhibitory effect on proteasomal degradation) ([2]; 50 μM): less of an inhibitory effect |
| CS/C([S-])=N/N=C/c1cccc(C)n1.CS/C([S-])=N/N=C/c1cccc(C)n1.[Cu+2] [NSC310551] | positive in the assay | 270 | 6.6 | 7.028 |  | levels of inhibition comparable to that of MG132 | accumulation of polyubiquitinated proteins and β-catenin (inhibitory effect on proteasomal degradation) ([2]; 0.3 μM): inhibitory activity comparable to that of 5 μM MG132 |
| CSC(=[SH+])[N-]N=C(c1ccccn1)c1ccccn1.[Cu][Br] [NSC321206] | positive in the assay | 170 | 7.2 | 7.73 |  | levels of inhibition comparable to that of MG132 | accumulation of polyubiquitinated proteins and β-catenin (inhibitory effect on proteasomal degradation) ([2]; 0.15 μM): inhibitory activity comparable to that of 5 μM MG132; GI50 ([7]; MDA-MB-231): 400 nM; effect on cell viability ([7]; MDA-MB-231, 1 μM): effectively eliminated all MDA-MB-231 cells; effect on cell viability [8]: only partially affected; inhibition of Tryptic like (β2), Caspase like (β1) and Chymotrypsin like (β5) activities of the proteasome [9]: observed inhibition |

Reference: patent US9289433B2, “Proteasome inhibitors and uses thereof” (Yeda Research and Development Co. Ltd., priority 2009, dated 2016)
